Results taken from ChEMBL document CHEMBL4387723, “Ultrasonication-ionic liquid synergy for the synthesis of new potent anti-tuberculosis 1,2,4-triazol-1-yl-pyrazole based spirooxindolopyrrolizidines” (Bioorg Med Chem Lett, 2019).
Converted amounts (≈) assume the structure as drawn.

Columns and labels:
[1] = Cytotoxicity against mouse RAW264.7 cells assessed as reduction in cell viability at 25 ug/ml incubated for 48 hrs by MTT assay relative to control; type: cell-based; details: read-out: INH
[2] = tested on: Mycobacterium tuberculosis; experiment: Antitubercular activity against Mycobacterium tuberculosis H37Rv incubated for 7 days by microplate alamar blue assay; type: functional; details: 168 h
[3] = tested on: Mycobacterium tuberculosis; experiment: Potency index, ratio of ethambutol MIC to test compound MIC for antitubercular activity against Mycobacterium tuberculosis H37Rv incubated for […] by microplate alamar blue assay; type: functional

| SMILES | cytotoxicity at 48 h, 25 ug/ml [1] | MIC [2] | Ratio [3] |
| --- | --- | --- | --- |
| Cc1nn(-c2ccccc2)c(-n2cncn2)c1C1C2CCCN2C2(C(=O)Nc3ccc(Cl)cc32)C1C(=O)c1cccc([N+](=O)[O-])c1 (stereo unspecified) | 19% | 6.25 µg/mL (≈ 9.84 µM) |  |
| Cc1nn(-c2ccccc2)c(-n2cncn2)c1C1C2CCCN2C2(C(=O)Nc3ccccc32)C1C(=O)c1cccc([N+](=O)[O-])c1 (stereo unspecified) |  | > 25 µg/mL |  |
| Cc1nn(-c2ccccc2)c(-n2cncn2)c1C1C2CCCN2C2(C(=O)Nc3ccc(Cl)cc32)C1C(=O)c1ccc(Br)cc1 (stereo unspecified) | 26.4% | 1.56 µg/mL (≈ 2.33 µM) |  |
| Cc1nn(-c2ccccc2)c(-n2cncn2)c1C1C2CCCN2C2(C(=O)Nc3ccccc32)C1C(=O)c1ccccc1 (stereo unspecified) |  | > 25 µg/mL |  |
| Cc1nn(-c2ccccc2)c(-n2cncn2)c1C1C2CCCN2C2(C(=O)Nc3ccc(Cl)cc32)C1C(=O)c1ccccc1 (stereo unspecified) | 19.8% | 0.78 µg/mL (≈ 1.32 µM) | >1 |
| Cc1nn(-c2ccccc2)c(-n2cncn2)c1C1C2CCCN2C2(C(=O)Nc3ccc(Br)cc32)C1C(=O)c1ccc(Cl)cc1 (stereo unspecified) | 22.4% | 1.56 µg/mL (≈ 2.33 µM) |  |
| COc1ccc(C(=O)C2C(c3c(C)nn(-c4ccccc4)c3-n3cncn3)C3CCCN3C23C(=O)Nc2ccccc23)cc1 (stereo unspecified) |  | 12.5 µg/mL (≈ 21.3 µM) |  |
| Cc1nn(-c2ccccc2)c(-n2cncn2)c1C1C2CCCN2C2(C(=O)Nc3ccc(Cl)cc32)C1C(=O)c1ccc([N+](=O)[O-])cc1 (stereo unspecified) | 24.9% | 1.56 µg/mL (≈ 2.46 µM) |  |
| Cc1ccc(C(=O)C2C(c3c(C)nn(-c4ccccc4)c3-n3cncn3)C3CCCN3C23C(=O)Nc2ccc(Cl)cc23)cc1 (stereo unspecified) |  | 25 µg/mL (≈ 41.4 µM) |  |
| Cc1nn(-c2ccccc2)c(-n2cncn2)c1C1C2CCCN2C2(C(=O)Nc3ccc(Br)cc32)C1C(=O)c1ccc(Br)cc1 (stereo unspecified) | 22% | 1.56 µg/mL (≈ 2.19 µM) |  |
| Cc1ccc(C(=O)C2C(c3c(C)nn(-c4ccccc4)c3-n3cncn3)C3CCCN3C23C(=O)Nc2ccccc23)cc1 (stereo unspecified) |  | > 25 µg/mL |  |
| Cc1nn(-c2ccccc2)c(-n2cncn2)c1C1C2CCCN2C2(C(=O)Nc3ccc(Br)cc32)C1C(=O)c1ccccc1 (stereo unspecified) | 18.6% | 3.12 µg/mL (≈ 4.92 µM) |  |
| COc1ccc(C(=O)C2C(c3c(C)nn(-c4ccccc4)c3-n3cncn3)C3CCCN3C23C(=O)Nc2ccc(Br)cc23)cc1 (stereo unspecified) |  | 25 µg/mL (≈ 37.6 µM) |  |
| Cc1nn(-c2ccccc2)c(-n2cncn2)c1C1C2CCCN2C2(C(=O)Nc3ccccc32)C1C(=O)c1ccc(Cl)cc1 (stereo unspecified) | 16.9% | 6.25 µg/mL (≈ 10.6 µM) |  |
| Cc1nn(-c2ccccc2)c(-n2cncn2)c1C1C2CCCN2C2(C(=O)Nc3ccc(Br)cc32)C1C(=O)c1cccc([N+](=O)[O-])c1 (stereo unspecified) | 20.1% | 6.25 µg/mL (≈ 9.2 µM) |  |
| Cc1nn(-c2ccccc2)c(-n2cncn2)c1C1C2CCCN2C2(C(=O)Nc3ccc(Cl)cc32)C1C(=O)c1ccc(Cl)cc1 (stereo unspecified) | 17.9% | 1.56 µg/mL (≈ 2.5 µM) |  |
| COc1ccc(C(=O)C2C(c3c(C)nn(-c4ccccc4)c3-n3cncn3)C3CCCN3C23C(=O)Nc2ccc(Cl)cc23)cc1 (stereo unspecified) | 21.6% | 3.12 µg/mL (≈ 5.03 µM) |  |
| Cc1nn(-c2ccccc2)c(-n2cncn2)c1C1C2CCCN2C2(C(=O)Nc3ccccc32)C1C(=O)c1ccc([N+](=O)[O-])cc1 (stereo unspecified) | 29.6% | 6.25 µg/mL (≈ 10.4 µM) |  |
| Cc1nn(-c2ccccc2)c(-n2cncn2)c1C1C2CCCN2C2(C(=O)Nc3ccccc32)C1C(=O)c1ccc(Br)cc1 (stereo unspecified) | 27.1% | 1.56 µg/mL (≈ 2.46 µM) |  |
| CC[C@@H](CO)NCCN[C@@H](CC)CO [ETHAMBUTOL] |  | 1.56 µg/mL (≈ 7.64 µM) |  |
| Cc1nn(-c2ccccc2)c(-n2cncn2)c1C1C2CCCN2C2(C(=O)Nc3ccc(Br)cc32)C1C(=O)c1ccc([N+](=O)[O-])cc1 (stereo unspecified) | 26.4% | 6.25 µg/mL (≈ 9.2 µM) |  |
